Test results: PMC11125018 (Pharmaceuticals, 2024)
Several values for one entry are separate records, joined by “and”; a condition that tells them apart may be missing. Identical values can stand only once. Like-named read-outs stand apart in the source and are kept apart here.

What was measured:
CB1 receptor [1] = biological target: T1, CB1 receptor (Homo sapiens, UniProt P21554); assay: PathHunter β-arrestin recruitment assay, agonist mode, CB1 expressing CHO-K1 cell line; assay type: cell-based; conditions: for agonist property: tested up to 5 µM; for Hill Slope: four-parameter log-logistic fit, three measurements; for Hill Slope / Maximum RE (%): parentheses = SD; for Maximum RE (%): 100% normalized to maximum (±)-CP 55,940 stimulation, 0% to vehicle; for EC50: EC50 (nM), agonist effect, 90 min incubation, parentheses = SD of three independent measurements; for classification as partial agonist of the CB1 cannabinoid receptor: relative to full agonist CP 55940
T1 construct: host or cells: CHO-K1
T1 sequence (P21554 whole entry): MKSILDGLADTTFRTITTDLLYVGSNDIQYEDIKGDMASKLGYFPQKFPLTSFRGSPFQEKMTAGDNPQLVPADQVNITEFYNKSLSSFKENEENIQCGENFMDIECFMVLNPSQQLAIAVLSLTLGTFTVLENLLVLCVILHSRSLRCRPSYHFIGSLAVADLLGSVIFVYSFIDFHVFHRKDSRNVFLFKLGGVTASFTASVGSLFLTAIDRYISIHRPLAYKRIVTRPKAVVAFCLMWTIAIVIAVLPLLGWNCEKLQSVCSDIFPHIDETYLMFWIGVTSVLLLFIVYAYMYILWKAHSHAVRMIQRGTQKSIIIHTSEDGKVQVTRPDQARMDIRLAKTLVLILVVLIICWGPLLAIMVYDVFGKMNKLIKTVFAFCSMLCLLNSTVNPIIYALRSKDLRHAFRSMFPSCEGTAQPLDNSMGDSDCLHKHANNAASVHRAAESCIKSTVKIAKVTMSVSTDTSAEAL
Protocol: (§1) For agonist and antagonist assays, PathHunter® CHO-K1 CNR1 (Eurofins DiscoverX, Fremont, CA, USA, Catalog number: 93-0959C2) β-Arrestin cells were expanded from freezer stocks according to standard procedures provided by Eurofins. The cell line manual was followed for cell growth (including cell culture media and supplementation, the handling and preparation of cells, etc.), test procedure, and signal detection. Cells were seeded in a total volume of 20 µL (5000 cells) into white-walled, 384-well microplates and incubated at 37 °C overnight prior to testing. After preparing stock acetonitrile solution at 1 mg/mL concentration of ligand, compound intermediate concentrations were achieved by a 10-point series of 3-fold compound serial dilutions in a compound dilution buffer in a separate dilution plate.
For the agonist assay, the concentration of each dilution was prepared at 5X of the final screening concentration. An amount of 5 µL of samples was added to cells (highest final concentration = 5 µM, maximum acetonitrile = 0.2 v/v%) and incubated at 37 °C for 90 min (5% CO2). To generate the assay signal, 12.5 µL of working detection solution was added to the cells, which were then left to incubate for an hour at room temperature in the dark. The signal detection was carried out using a PerkinElmer Envision instrument to measure chemiluminescence.

CB1 receptor [2] = biological target: T1, CB1 receptor; assay: cell-based; assay type: cell-based; conditions: for Hill Slope / Maximum RE (%): antagonist mode, parentheses = SD; for Hill Slope: four-parameter log-logistic fit, three measurements; for Maximum RE (%): 100% normalized to maximum AM-281, 0% to vehicle
Protocol: as §1
For antagonist determination, cells were pre-incubated with THCV isomers, followed by agonist challenge at the EC80 concentration. Each THCV dilution was prepared at a 10X concentration relative to the intended final concentrations for screening. An amount of 2.5 µL of these samples were introduced into the cells, achieving a maximum final concentration of 5 µM for THCV and ~0.2 v/v% for acetonitrile. The assay plate was incubated at 37 °C for 30 min in an atmosphere containing 5% CO2. […] Cells were incubated for 90 min at 37 °C and 5% CO2. To generate the assay signal, 12.5 µL of working detection solution was added to the cells, which were then left to incubate for an hour at room temperature in the dark. The signal detection was carried out using a PerkinElmer Envision (Waltham, MA, USA) instrument to measure chemiluminescence.

CB2 receptor = conditions: in vitro studies; cited from earlier work
CB1 = conditions: cAMP assay, cited from earlier work; for EC50: read-out: agonist EC50

| SMILES | agonist property (CB1 receptor [1]; agonist mode) | IC50 (CB1 receptor [2]; IC50 (nM)) | Hill Slope (CB1 receptor [2]) | Maximum RE (%) (CB1 receptor [2]) | Hill Slope (CB1 receptor [1]; agonist mode) | Maximum RE (%) (CB1 receptor [1]; agonist mode) | EC50 (CB1 receptor [1]) | classification as partial agonist of the CB1 cannabinoid receptor (CB1 receptor [1]) | CB2 selectivity (CB2 receptor) | EC50 (CB1) | also measured |
| --- | --- | --- | --- | --- | --- | --- | --- | --- | --- | --- | --- |
| CCCc1cc(O)c2c(c1)OC(C)(C)[C@@H]1CCC(C)=C[C@@H]21 [∆9-THCV, tetrahydrocannabivarin] | failed to show any significant agonist property | 52.4 nM | 1.38 (0.18) | 96.46 (2.20) % | – | – | – | – | – | – | Emax (CB1 receptor [1]; CHO-K1, agonist mode, up to 5 µM, insignificant increase from baseline): 1.19%; fold less potent antagonist than AM-281 (CB1 receptor [2]): ~ 3 ×; fold less potent antagonist than rimonabant (CB1 receptor [2]): ~ 45 × |
| Cc1c(C(=O)NN2CCOCC2)nn(-c2ccc(Cl)cc2Cl)c1-c1ccc(I)cc1 [AM-281, reference compound] | – | – | 0.81 (0.07) | 101.90 (1.63) % | – | – | – | – | – | – | IC50 (CB1 receptor [2]; read-out: IC50): 17.7 nM |
| CCCCCCC(C)(C)c1ccc([C@@H]2C[C@H](O)CC[C@H]2CCCO)c(O)c1 [CP 55940, reference compound] | – | – | – | – | 0.90 (0.10) | 105.50 (3.34) % | – | – | – | – | – |
| CCCCCc1cc(O)c2c(c1)OC(C)(C)[C@@H]1CC[C@@H](C)C[C@@H]21 [9R-HHC, hexahydrocannabinol] | – | – | – | – | 0.56 (0.07) | 41.51% and 41.51 (1.70) % | 53.4 nM and 53.5 nM | moderate | 1.2 times | 3.4 nM | fold higher agonist potency than 9S-HHC (CB1): approximately 16 fold |
| CCCCCc1cc(O)c2c(c1)OC(C)(C)[C@@H]1CC[C@H](C)C[C@@H]21 [9S-HHC, hexahydrocannabinol] | – | – | – | – | 0.95 (0.08) | 20.58% and 20.58 (0.80) % | 624 nM | weak | 1.7 times | 57 nM | – |
| CCCc1cc(O)c2c(c1)OC(C)(C)[C@@H]1CC=C(C)C[C@@H]21 [∆8-THCV, tetrahydrocannabivarin] | failed to show any significant agonist property | 120 nM | 1.37 (0.09) | 97.40 (1.16) % | – | – | – | – | – | – | – |
